{
  "source": "the supplement of paper PMC10307832",
  "experiment_in_all_cases": "relative viability (nuclei count vs DMSO), 5 days (fraction); higher = more cells survive",
  "key": {"LCLC-103H": {"system": "LCLC-103H", "procedure,_shortened": "(§1)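 Medians of duplicate plates are given as relative viability. That measure is the nuclei count in treated wells divided by the count in vehicle wells. Counts were taken on 4× images of lung cancer cell lines in 1536-well plates, 5 days after pin-tool dosing the day after seeding with one drug alone or a fixed anchor-drug dose plus five library-drug doses (not always all listed) in √10 steps.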"}, "NCI-H727": {"system": "NCI-H727", "procedure,_shortened": "as §1"}, "EKVX": {"system": "EKVX", "procedure,_shortened": "as §1"}, "BEN": {"system": "BEN", "procedure,_shortened": "as §1"}, "NCI-H2170": {"system": "NCI-H2170", "procedure,_shortened": "as §1"}, "HCC-827": {"system": "HCC-827", "procedure,_shortened": "as §1"}, "NCI-H1666": {"system": "NCI-H1666", "procedure,_shortened": "as §1"}, "LOU-NH91": {"system": "LOU-NH91", "procedure,_shortened": "as §1"}, "NCI-H1944": {"system": "NCI-H1944", "procedure,_shortened": "as §1"}, "NCI-H1355": {"system": "NCI-H1355", "procedure,_shortened": "as §1"}, "HOP-62": {"system": "HOP-62", "procedure,_shortened": "as §1"}, "NCI-H661": {"system": "NCI-H661", "procedure,_shortened": "as §1"}, "SK-MES-1": {"system": "SK-MES-1", "procedure,_shortened": "as §1"}, "LXF-289": {"system": "LXF-289", "procedure,_shortened": "as §1"}, "PC-14": {"system": "PC-14", "procedure,_shortened": "as §1"}, "NCI-H647": {"system": "NCI-H647", "procedure,_shortened": "as §1"}, "NCI-H1993": {"system": "NCI-H1993", "procedure,_shortened": "as §1"}, "NCI-H441": {"system": "NCI-H441", "procedure,_shortened": "as §1"}, "NCI-H2126": {"system": "NCI-H2126", "procedure,_shortened": "as §1"}, "LK-2": {"system": "LK-2", "procedure,_shortened": "as §1"}, "RERF-LC-KJ": {"system": "RERF-LC-KJ", "procedure,_shortened": "as §1"}, "NCI-H1437": {"system": "NCI-H1437", "procedure,_shortened": "as §1"}},
  "data": [
    {"compound": "Nc1cccc2c1CN(C1CCC(=O)NC1=O)C2=O", "note": "(stereo unspecified) [Lenalidomide] + Cc1nc(NC(=O)N2CCC[C@H]2C(N)=O)sc1-c1ccnc(C(C)(C)C(F)(F)F)c1 [Alpelisib] (partner 2 µM)", "values": [
      {"measurement": "relative viability", "setting": "LCLC-103H; first compound 0.253 µM", "result": 0.993},
      {"measurement": "relative viability", "setting": "LCLC-103H; first compound 0.8 µM", "result": 1},
      {"measurement": "relative viability", "setting": "LCLC-103H; first compound 2.53 µM", "result": 0.862},
      {"measurement": "relative viability", "setting": "LCLC-103H; first compound 8 µM", "result": 0.674},
      {"measurement": "relative viability", "setting": "NCI-H727; first compound 0.253 µM", "result": 0.546},
      {"measurement": "relative viability", "setting": "NCI-H727; first compound 2.53 µM", "result": 0.543},
      {"measurement": "relative viability", "setting": "NCI-H727; first compound 8 µM", "result": 0.553},
      {"measurement": "relative viability", "setting": "EKVX; first compound 0.253 µM", "result": 0.803},
      {"measurement": "relative viability", "setting": "EKVX; first compound 0.8 µM", "result": 0.95},
      {"measurement": "relative viability", "setting": "EKVX; first compound 2.53 µM", "result": 0.931},
      {"measurement": "relative viability", "setting": "EKVX; first compound 8 µM", "result": 0.772},
      {"measurement": "relative viability", "setting": "BEN; first compound 0.253 µM", "result": 1.05},
      {"measurement": "relative viability", "setting": "BEN; first compound 0.8 µM", "result": 1.01},
      {"measurement": "relative viability", "setting": "BEN; first compound 2.53 µM", "result": 1.16},
      {"measurement": "relative viability", "setting": "BEN; first compound 8 µM", "result": 0.788},
      {"measurement": "relative viability", "setting": "NCI-H2170; first compound 0.253 µM", "result": 0.881},
      {"measurement": "relative viability", "setting": "NCI-H2170; first compound 0.8 µM", "result": 0.781},
      {"measurement": "relative viability", "setting": "NCI-H2170; first compound 2.53 µM", "result": 0.84},
      {"measurement": "relative viability", "setting": "NCI-H2170; first compound 8 µM", "result": 0.755},
      {"measurement": "relative viability", "setting": "HCC-827; first compound 0.253 µM", "result": 0.978},
      {"measurement": "relative viability", "setting": "HCC-827; first compound 0.8 µM", "result": 1.06},
      {"measurement": "relative viability", "setting": "HCC-827; first compound 2.53 µM", "result": 0.96},
      {"measurement": "relative viability", "setting": "HCC-827; first compound 8 µM", "result": 0.846},
      {"measurement": "relative viability", "setting": "NCI-H1666; first compound 0.253 µM", "result": 1.04},
      {"measurement": "relative viability", "setting": "NCI-H1666; first compound 0.8 µM", "result": 0.83},
      {"measurement": "relative viability", "setting": "NCI-H1666; first compound 2.53 µM", "result": 0.882},
      {"measurement": "relative viability", "setting": "NCI-H1666; first compound 8 µM", "result": 1.04},
      {"measurement": "relative viability", "setting": "LOU-NH91; first compound 0.253 µM", "result": 0.686},
      {"measurement": "relative viability", "setting": "LOU-NH91; first compound 0.8 µM", "result": 0.762},
      {"measurement": "relative viability", "setting": "LOU-NH91; first compound 2.53 µM", "result": 0.73},
      {"measurement": "relative viability", "setting": "LOU-NH91; first compound 8 µM", "result": 0.662},
      {"measurement": "relative viability", "setting": "NCI-H1944; first compound 0.253 µM", "result": 0.885},
      {"measurement": "relative viability", "setting": "NCI-H1944; first compound 0.8 µM", "result": 0.934},
      {"measurement": "relative viability", "setting": "NCI-H1944; first compound 2.53 µM", "result": 0.897},
      {"measurement": "relative viability", "setting": "NCI-H1944; first compound 8 µM", "result": 0.654},
      {"measurement": "relative viability", "setting": "NCI-H1355; first compound 0.253 µM", "result": 0.806},
      {"measurement": "relative viability", "setting": "NCI-H1355; first compound 0.8 µM", "result": 0.645},
      {"measurement": "relative viability", "setting": "NCI-H1355; first compound 2.53 µM", "result": 0.848},
      {"measurement": "relative viability", "setting": "NCI-H1355; first compound 8 µM", "result": 0.454},
      {"measurement": "relative viability", "setting": "HOP-62; first compound 0.253 µM", "result": 0.983},
      {"measurement": "relative viability", "setting": "HOP-62; first compound 0.8 µM", "result": 1.08},
      {"measurement": "relative viability", "setting": "HOP-62; first compound 2.53 µM", "result": 0.984},
      {"measurement": "relative viability", "setting": "HOP-62; first compound 8 µM", "result": 0.828},
      {"measurement": "relative viability", "setting": "NCI-H661; first compound 0.253 µM", "result": 0.957},
      {"measurement": "relative viability", "setting": "NCI-H661; first compound 0.8 µM", "result": 0.447},
      {"measurement": "relative viability", "setting": "NCI-H661; first compound 2.53 µM", "result": 0.458},
      {"measurement": "relative viability", "setting": "NCI-H661; first compound 8 µM", "result": 0.544},
      {"measurement": "relative viability", "setting": "SK-MES-1; first compound 0.253 µM", "result": 0.908},
      {"measurement": "relative viability", "setting": "SK-MES-1; first compound 0.8 µM", "result": 1.02},
      {"measurement": "relative viability", "setting": "SK-MES-1; first compound 2.53 µM", "result": 0.975},
      {"measurement": "relative viability", "setting": "SK-MES-1; first compound 8 µM", "result": 0.617},
      {"measurement": "relative viability", "setting": "LXF-289; first compound 0.253 µM", "result": 1.05},
      {"measurement": "relative viability", "setting": "LXF-289; first compound 0.8 µM", "result": 1.05},
      {"measurement": "relative viability", "setting": "LXF-289; first compound 2.53 µM", "result": 1.11},
      {"measurement": "relative viability", "setting": "LXF-289; first compound 8 µM", "result": 1.08},
      {"measurement": "relative viability", "setting": "PC-14; first compound 0.253 µM", "result": 0.899},
      {"measurement": "relative viability", "setting": "PC-14; first compound 0.8 µM", "result": 0.93},
      {"measurement": "relative viability", "setting": "PC-14; first compound 2.53 µM", "result": 0.982},
      {"measurement": "relative viability", "setting": "PC-14; first compound 8 µM", "result": 0.9},
      {"measurement": "relative viability", "setting": "NCI-H647; first compound 0.253 µM", "result": 1.22},
      {"measurement": "relative viability", "setting": "NCI-H647; first compound 0.8 µM", "result": 1.14},
      {"measurement": "relative viability", "setting": "NCI-H647; first compound 2.53 µM", "result": 1.1},
      {"measurement": "relative viability", "setting": "NCI-H647; first compound 8 µM", "result": 1.12},
      {"measurement": "relative viability", "setting": "NCI-H1993; first compound 0.253 µM", "result": 0.744},
      {"measurement": "relative viability", "setting": "NCI-H1993; first compound 0.8 µM", "result": 0.734},
      {"measurement": "relative viability", "setting": "NCI-H1993; first compound 2.53 µM", "result": 0.683},
      {"measurement": "relative viability", "setting": "NCI-H1993; first compound 8 µM", "result": 0.713},
      {"measurement": "relative viability", "setting": "NCI-H441; first compound 0.253 µM", "result": 0.74},
      {"measurement": "relative viability", "setting": "NCI-H441; first compound 0.8 µM", "result": 0.663},
      {"measurement": "relative viability", "setting": "NCI-H441; first compound 2.53 µM", "result": 0.917},
      {"measurement": "relative viability", "setting": "NCI-H441; first compound 8 µM", "result": 0.775},
      {"measurement": "relative viability", "setting": "NCI-H2126; first compound 0.253 µM", "result": 0.735},
      {"measurement": "relative viability", "setting": "NCI-H2126; first compound 0.8 µM", "result": 0.75},
      {"measurement": "relative viability", "setting": "NCI-H2126; first compound 2.53 µM", "result": 0.646},
      {"measurement": "relative viability", "setting": "NCI-H2126; first compound 8 µM", "result": 0.55},
      {"measurement": "relative viability", "setting": "LK-2; first compound 0.253 µM", "result": 1.11},
      {"measurement": "relative viability", "setting": "LK-2; first compound 2.53 µM", "result": 1.09},
      {"measurement": "relative viability", "setting": "LK-2; first compound 8 µM", "result": 1.03},
      {"measurement": "relative viability", "setting": "RERF-LC-KJ; first compound 0.253 µM", "result": 0.624},
      {"measurement": "relative viability", "setting": "RERF-LC-KJ; first compound 0.8 µM", "result": 0.904},
      {"measurement": "relative viability", "setting": "RERF-LC-KJ; first compound 2.53 µM", "result": 0.752},
      {"measurement": "relative viability", "setting": "RERF-LC-KJ; first compound 8 µM", "result": 0.637},
      {"measurement": "relative viability", "setting": "NCI-H1437; first compound 0.253 µM", "result": 1.01},
      {"measurement": "relative viability", "setting": "NCI-H1437; first compound 0.8 µM", "result": 1.03},
      {"measurement": "relative viability", "setting": "NCI-H1437; first compound 2.53 µM", "result": 1.09},
      {"measurement": "relative viability", "setting": "NCI-H1437; first compound 8 µM", "result": 1}
    ]}
  ]
}
